A short description of the data set: in vitro. Conditions: human, hela cells, % viability.

Take `O=S(=O)(NCCc1cccc(C(F)(F)F)c1)c1cccs1` [CBK044068]: the viability at 28.5 h, 10 µM worked out at 91.1%.
Under `Cc1ccc2c(c1)cc(C)c1nn(CC(=O)N3CCCC3)c(=O)n12` [CBK283872] stands 101%; under `CC(C)(C)OC(=O)NC1CCN(C(=O)Nc2ccc(OCc3ccccc3)cc2)CC1` [CBK086602], 98.4%; under `Cc1ccc(SCCNS(=O)(=O)c2ccc3ccccc3c2)cc1` [CBK267504], 88%.
Take `CC(=O)c1ccc(C(=O)Nc2ccc3nc(C)sc3c2)cc1` [CBK287310]: the viability at 28.5 h, 10 µM amounted to 95.5%.
The value for `COc1ccc([C@@]23CC[C@@H](N)C[C@@H]2N(C(C)(C)C)CC3)cc1OC` [CBK067673] was 114%.
The value for `Cc1cc(NC(=O)c2ccc(N3C(=O)CCC3=O)cc2)nc2c1c(=O)oc1ccccc12` [CBK291205] was 114%.
As for `COc1c2c(nc3ccccc13)OC(C(C)(O)CO)C2` (centres unmarked) [CBK261506], the viability at 28.5 h, 10 µM was 87.6%.
In the case of `N#Cc1ccc(C(=O)N2CCN3C(=O)[C@H](Cc4ccc(F)cc4)NC(=O)[C@H]3C2)cc1` [CBK289602], the viability at 28.5 h, 10 µM stood at 106%.
Under `Cc1cccc(OCCCn2cncc2-c2cnn(C)c2)c1` [CBK281763] stands 82%; under `Oc1ccc(SCCCCN2CCCCC2)cc1` [CBK033676], 110%; under `Cc1ccc(C(=O)NCCN2CCOCC2)c(N2CCOCC2)n1` [CBK106201], 87%.
Under `O=C(O)CCn1c2ccc(Br)cc2c2cc(Br)ccc21` [CBK262551] stands 83.9%.
`Cc1ccc(/C=C/C(=O)O)cc1S(=O)(=O)NC1CCS(=O)(=O)C1` (centres unmarked) [CBK264409]: the viability at 28.5 h, 10 µM is 96.1%.
Regarding `S=C(NCC1CCN(C(=S)Nc2cccc3ccccc23)CC1)Nc1cccc2ccccc12` [CBK016070], the viability at 28.5 h, 10 µM turned out to be 107%.
`O=C(Nc1c(F)cccc1F)N(Cc1ccc2ccccc2c1)CC1CCNCC1` [CBK119480]: the viability at 28.5 h, 10 µM is 100%.
For the compound `Cn1c(=O)c2c(nc(S)n2CCCc2ccccc2)n(C)c1=O` [CBK288411], the viability at 28.5 h, 10 µM is 105%.
Under `CCCNc1nc(Nc2ccc(C)cc2)nc(N2CCOCC2)n1` [CBK266664] stands 111%; under `CC(c1ccccc1)c1nc2cnccn2c1NC(C)(C)C` (centres unmarked) [CBK283533], 92.3%.
The value for `Cc1ccc(N(C(C)C(=O)Nc2ccccc2C(F)(F)F)S(C)(=O)=O)cc1` (centres unmarked) [CBK268796] was 84.5%; that for `Clc1ccc(-n2c(SCc3nc4ccccc4[nH]3)nnc2-c2ccncc2)cc1` [CBK267557] was 100%; that for `COCCC(=O)Nc1cccc(N2CCNCC2)c1` [CBK004769T] was 89.9%.
For the compound `CN(C)CCOc1ncccc1OCCO` [CBK000655F], the viability at 28.5 h, 10 µM was 98.2%.
Consider `Cc1ccc(C)c(C(=O)C2=C(O)C(=O)N(CCN(C)C)C2c2cccc(Cl)c2)c1` (centres unmarked) [CBK265495], for which the viability at 28.5 h, 10 µM was 91.4%.
The value for `CC(C)(C)c1ccc(OCc2nc(N)c3c(N)n[nH]c3n2)cc1` [CBK008565] was 90.8%; that for `Cc1ncccc1-c1cc2cccnc2n1CCC(=O)NC1CC1` [CBK282690] was 106%.
The value for `Cc1ccn2cc(-c3cc4c(ccc5ccccc54)oc3=O)nc2c1` [CBK287313] was 100%.
The value for `COc1ccc(-n2c(=O)[nH]c3ncc(-c4ccco4)nc32)c(C)c1` [CBK065019] was 101%; that for `O=C(O)COCC(=O)N1CCN(CCc2ccccc2)CC1` [CBK270298] was 107%; that for `NNC(=O)CNS(=O)(=O)c1ccccc1` [CBK261967] was 97.9%.
Take `Cc1nnc(CN(CC2CCCO2)C2CCC(C)CC2)n1C` (centres unmarked) [CBK305548]: the viability at 28.5 h, 10 µM turned out to be 95.2%.
The value for `CS(=O)(=O)c1nc(-c2ccccc2)ns1` [CBK017338] was 90.6%; that for `CCN(CC)CCN(Cc1ccc2c(c1)OCO2)C(=O)Nc1ccc2[nH]ccc2c1` [CBK159037] was 96.7%.
Under `COc1ccc(F)cc1-c1cccc(CC2(C(=O)NCc3cccs3)CCOCC2)c1` [CBK285543] stands 90.6%.
Turning to `O=C(Cn1c(C2CCNCC2)cc2cccnc21)NC1CCCC1` [CBK285002], the viability at 28.5 h, 10 µM is 104%.
The value for `CC(=O)Nc1cccc(-c2ccc(C(=O)NCc3ccc(F)cc3)c(N3CCN(C(=O)c4ccco4)CC3)n2)c1` [CBK106012] was 85.5%; that for `Cc1ccc2nc(O)c(C3=NN(C(=O)CCC(=O)O)C(c4ccco4)C3)c(-c3ccccc3)c2c1` (centres unmarked) [CBK267544] was 91%.
The value for `O=S(=O)(NC1c2cccc3cccc(c23)C1Sc1ccccn1)c1ccc(Cl)cc1` (centres unmarked) [CBK264073] was 95.1%.
Under `Cc1ncsc1C(=O)N1CCC(c2cccc(Cc3ccccc3Cl)n2)CC1` [CBK286146] stands 99.2%; under `O=C(Cn1cccn1)NC(CN1CCCCC1)c1ccccc1` (centres unmarked) [CBK281726], 104%.
Take `COc1ccc(CN(C)c2c(C)nc3c(OCCCN(C)S(C)(=O)=O)cccn23)cc1` [CBK147468]: the viability at 28.5 h, 10 µM turned out to be 90%.
Under `CCOC(=O)c1c(-n2cnnn2)sc(C)c1C` [CBK027660] stands 93.6%; under `O=C(C1CCC1)N1CCC(c2nnc3n2CCCCC3)CC1` [CBK284625], 103%; under `CC(=O)Nc1cccc(-c2ccc(Nc3cccnc3)nc2)c1` [CBK037703], 96.7%.
The value for `c1ccc2sc(CCCCc3nc4ccccc4s3)nc2c1` [CBK261248] was 92.5%; that for `CCCn1c(CN2CCOCC2)nc2ccccc21` [CBK287784] was 99.1%.
The value for `Cc1ccc(SCC(=O)Nc2ccc(O)cc2C(=O)O)cc1` [CBK131703] was 118%.
In the case of `O=C1CCCN1c1ccc(S(=O)(=O)N2CCN(c3ccccn3)CC2)cc1` [CBK268237], the viability at 28.5 h, 10 µM is 84.5%.
Take `O=C1c2ccccc2NC(c2ccccc2F)N1O` (centres unmarked) [CBK288377]: the viability at 28.5 h, 10 µM was 93.4%.
The value for `O=C(NC(c1ccc(F)cc1)c1cnccn1)C1CCN(C(=O)c2ccco2)CC1` (centres unmarked) [CBK059956] was 94.3%; that for `CC(C)C(NS(=O)(=O)c1ccc(I)cc1)C(=O)O` (centres unmarked) [CBK268703] was 106%; that for `CC(=O)Nc1ccc(-c2csc(NC(=O)NS(=O)(=O)c3ccc(C)cc3)n2)cc1` [CBK297084] was 107%.
Under `Cc1cc(N2CCC(c3cc(CCOc4ccc(Cl)cc4)[nH]n3)C2)nc(C)n1` (centres unmarked) [CBK286119] stands 98.1%.
In the case of `CC(C)OC(=O)c1cc2n(n1)C(C(F)(F)F)CC(c1cccs1)N2` (centres unmarked) [CBK307176], the viability at 28.5 h, 10 µM was found to be 87.6%.
Turning to `O=C(CN1CCCCCC1)N/N=C/c1ccc(F)c(Br)c1` [CBK261596], the viability at 28.5 h, 10 µM was determined as 94.7%.
Under `Cc1cc(Cc2ccccc2Cl)cc(C2CCCN(CC(=O)N(C)C)C2)n1` (centres unmarked) [CBK286262] stands 87.6%; under `Cn1c(CNc2ccccc2C(=O)O)c(C#N)c2ccccc21` [CBK286977], 88.7%.
Regarding `CCOC(=O)C1CCCN(Cc2nnsc2Cl)C1` (centres unmarked) [CBK304848], the viability at 28.5 h, 10 µM was 95.7%.
Under `COc1ccc(C(NC(=O)c2ccc(C(C)N3CCOCC3)o2)c2ccccc2)cc1` (centres unmarked) [CBK285748] stands 112%; under `CS(=O)(=O)c1ccc(Nc2ccc3c(c2)COC2(CCN(C(=O)Cc4ccc(F)cc4F)C2)O3)cc1` (centres unmarked) [CBK131948], 90.8%; under `CCC(O)c1cc2n(n1)CCN(C(=O)c1cn(-c3ccccc3)nn1)C2` (centres unmarked) [CBK306708], 93.7%.
The value for `CC1CCN(S(=O)(=O)c2ccc3c(c2)oc(=O)c2cc(S(=O)(=O)N4CCC(C)CC4)ccc23)CC1` [CBK266314] was 100%; that for `CNc1ccc(OC(=O)c2ccco2)cc1` [CBK010779] was 88.1%; that for `CC(C)(C)OC(=O)N1CCC(NCc2ccccn2)CC1` [CBK304603] was 97.1%.
The value for `Nc1ccc(-c2cc(F)cc(F)c2)c2ccccc12` [CBK084314] was 93.2%; that for `COCc1ccc(Nc2ccccc2S(=O)(=O)c2ccccc2)cc1OCC1CCN(C(=O)OC(C)(C)C)CC1` [CBK175577] was 94.6%.
`CCc1cccc2c(CC(=O)NC3CCCOC3)c(C)[nH]c12` (centres unmarked) [CBK282584]: the viability at 28.5 h, 10 µM was determined as 105%.
With `O=C1NC2(CCc3ccccc31)CCN(C(=O)CCn1cccn1)C2` (centres unmarked) [CBK283352], the viability at 28.5 h, 10 µM came out at 91.2%.
The value for `COc1ccc(C2(CN3CCC(NC(C)=O)CC3)CCCC2)cc1` [CBK283241] was 85.4%; that for `CN1CCN(C(=O)c2ccc(-c3nccnc3NCCc3cccnc3)cc2)CC1` [CBK036838] was 97.2%; that for `CCCN(CCC)C(=O)Cn1cnc2ccc(Cl)cc2c1=O` [CBK304651] was 78.2%.
Under `O=C(NCc1ccccc1)c1ccc2[nH]c(=O)c(-c3ccccc3)c(O)c2c1` [CBK160318] stands 84%; under `CC(NC(=O)CC(C)n1cccn1)c1cc2cc(Cl)ccc2o1` (centres unmarked) [CBK281432], 92.6%; under `COc1ccc(C(=O)Nc2nc3c(C)cccc3s2)c(OC)c1` [CBK287301], 82.6%.
Under `c1ccc(Cn2c(CN3CCCCC3)nc3ccccc32)cc1` [CBK269237] stands 102%; under `CC1=NN(c2ccc(S(=O)(=O)O)cc2)C(=O)/C1=C/C=C/c1c(C)nn(-c2ccc(S(=O)(=O)O)cc2)c1O` [CBK278317K], 94.6%; under `COCC(=O)N1CCc2sccc2C1c1ccc(NCc2ccc(OC)cc2)cc1` (centres unmarked) [CBK286458], 85.1%.
`O=C(O)CCN1CCC2(CCN(C(=O)c3cc(F)c(F)cc3F)C2)C1` (centres unmarked) [CBK137123]: the viability at 28.5 h, 10 µM was determined as 86.8%.
The value for `O=C(CSCc1cccc(Br)c1)Nc1cccc2cccnc12` [CBK261204] was 101%.
Under `CCNC(=O)O[C@@H]1CO[C@H]2[C@@H]1OC[C@@H]2NC(=O)c1ccc(C)cc1` [CBK289472] stands 106%.

Broadly, the viability is a read-out of living cells in per cent, often relative to untreated cells.

These data come from paper PMC12040169 (PLOS Biology, 2025).
